Source: patent publication US20100184767A1, “SUBSTITUTED OXAZOLIDINONES AND USE THEREOF” (priority 2007, published 2010)

Target: human factor Xa (FXa) (Homo sapiens, UniProt P00742)
Experiment: Factor Xa inhibition, fluorogenic assay
Assay type: biochemical
Conditions: fluorogenic substrate Boc-Ile-Glu-Gly-Arg-AMC, human FXa 1.3 nmol/l, pH 7.4, 22° C.
Description: The enzymatic activity of human factor Xa (FXa) is measured using the conversion of a fluorogenic substrate specific for FXa. FXa cleaves aminomethylcoumarin, whose fluorescence is measured, from the peptidic substrate. The determinations are carried out in microtitre plates.
Substances to be tested, in various concentrations, are dissolved in dimethyl sulphoxide and incubated for 15 min at 22° C. with human FXa (1.3 nmol/l dissolved in 50 mmol/l of Tris buffer [C,C,C-tris(hydroxymethyl)aminomethane], 100 mmol/l NaCl, 0.1% BSA [bovine serum albumin], pH 7.4). The fluorogenic substrate (5 μmol/l of Boc-Ile-Glu-Gly-Arg-AMC from Bachem) is then added. After an incubation time of 30 min, the sample is excited at a wavelength of 360 nm, and the emission at 460 nm is measured. The measured emissions of the test batches with test substance are compared to the control batches without test substance (only dimethyl sulphoxide instead of test substance in dimethyl sulphoxide), and IC50 values are calculated from the concentration/activity relationships.

Chain of human factor Xa (FXa) (P00742 235-488 limits assumed): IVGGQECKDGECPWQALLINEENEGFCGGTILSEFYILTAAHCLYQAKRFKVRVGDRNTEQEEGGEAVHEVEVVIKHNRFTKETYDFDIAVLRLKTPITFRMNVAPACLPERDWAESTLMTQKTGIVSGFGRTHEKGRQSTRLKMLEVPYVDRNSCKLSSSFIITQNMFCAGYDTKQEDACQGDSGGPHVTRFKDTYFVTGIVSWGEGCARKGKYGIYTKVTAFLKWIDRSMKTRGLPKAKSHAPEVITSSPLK
Chain of human factor Xa (FXa) (P00742 41-179 partner limits assumed): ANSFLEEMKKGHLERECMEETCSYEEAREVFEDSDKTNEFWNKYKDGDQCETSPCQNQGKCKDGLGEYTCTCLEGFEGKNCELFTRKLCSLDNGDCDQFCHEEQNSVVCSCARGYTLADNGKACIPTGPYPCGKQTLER

Q: For `O=C(NC[C@H]1CN(c2ccc(N3CCOCC3=O)cc2F)C(=O)O1)c1ccc(Cl)s1` [Example 1, 5-Chloro-N-({(5S)-3-[2-fluoro-4-(3-oxomorpholin-4-yl)phenyl]-2-oxo-1,3-oxazolidin-5-yl}methyl)thiophene-2-carboxamide], which IC50 is on record?
A: 0.9 nM

Q: For `O=C(NC[C@H]1CN(c2ccc(N3CCCCC3=O)cc2F)C(=O)O1)c1ccc(Cl)s1` [Example 11, 5-Chloro-N-({(5S)-3-[2-fluoro-4-(2-oxopiperidin-1-yl)phenyl]-2-oxo-1,3-oxazolidin-5-yl}methyl)thiophene-2-carboxamide], which IC50 is on record?
A: 2.2 nM

Q: Which IC50 does the source give for `O=C(NC[C@H]1CN(c2ccc(N3CCOCC3=O)cc2Cl)C(=O)O1)c1ccc(Cl)s1` [Example 12, 5-Chloro-N-({(5S)-3-[2-chloro-4-(3-oxomorpholin-4-yl)phenyl]-2-oxo-1,3-oxazolidin-5-yl}methyl)thiophene-2-carboxamide] here?
A: 1.8 nM

Q: How did the IC50 turn out when `O=C(NC[C@H]1CN(c2ccc(-n3cccc(CO)c3=O)cc2F)C(=O)O1)c1ccc(Cl)s1` [Example 22, 5-Chloro-N-{[(5S)-3-{2-fluoro-4-[3-(hydroxymethyl)-2-oxopyridin-1(2H)-yl]phenyl}-2-oxo-1,3-oxazolidin-5-yl]methyl}thiophene-2-carboxamide] was run?
A: 0.9 nM
